From ChEMBL document CHEMBL1759901 (Bioorg Med Chem Lett, 2011)
Active and inactive are the calls of the source. The calls are words filed in the database; no cut-off is given here.

Key:
[1] = Lipophilicity, log D of the compound; assay type: physicochemical; conditions: octanol/water
[2] = Half life in iv dosed rat; assay type: ADME, organism-based; conditions: in vivo
[3] = Metabolic stability in human microsomes assessed as per mg of tissue; assay type: ADME, Microsome
[4] = biological target: Sodium-dependent serotonin transporter (Homo sapiens, UniProt P31645); experiment: Inhibition of serotonin transporter
Chain of Sodium-dependent serotonin transporter (P31645 whole entry): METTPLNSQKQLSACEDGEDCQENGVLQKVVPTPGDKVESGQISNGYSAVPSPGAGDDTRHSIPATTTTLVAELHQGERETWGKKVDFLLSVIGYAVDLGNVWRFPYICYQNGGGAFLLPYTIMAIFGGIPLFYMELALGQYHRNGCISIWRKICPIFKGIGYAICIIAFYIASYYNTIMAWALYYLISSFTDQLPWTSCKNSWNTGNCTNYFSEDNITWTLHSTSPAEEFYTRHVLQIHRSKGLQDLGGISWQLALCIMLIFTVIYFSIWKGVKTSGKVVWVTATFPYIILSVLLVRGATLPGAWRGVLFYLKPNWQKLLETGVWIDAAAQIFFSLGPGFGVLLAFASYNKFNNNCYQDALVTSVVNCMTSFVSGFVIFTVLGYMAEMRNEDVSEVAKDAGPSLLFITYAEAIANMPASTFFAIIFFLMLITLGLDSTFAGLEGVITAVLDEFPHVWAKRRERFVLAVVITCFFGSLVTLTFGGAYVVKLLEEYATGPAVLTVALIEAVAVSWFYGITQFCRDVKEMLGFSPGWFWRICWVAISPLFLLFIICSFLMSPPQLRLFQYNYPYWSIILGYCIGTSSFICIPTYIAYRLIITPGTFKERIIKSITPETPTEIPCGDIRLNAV

[5] = Volume of distribution at steady state in iv dosed rat; assay type: ADME, organism-based; conditions: in vivo, read-out: Vdss
[6] = biological target: Cytochrome P450 2D6 (Homo sapiens, UniProt P10635); experiment: Inhibition of CYP2D6; assay type: ADME
Chain of Cytochrome P450 2D6 (P10635 whole entry): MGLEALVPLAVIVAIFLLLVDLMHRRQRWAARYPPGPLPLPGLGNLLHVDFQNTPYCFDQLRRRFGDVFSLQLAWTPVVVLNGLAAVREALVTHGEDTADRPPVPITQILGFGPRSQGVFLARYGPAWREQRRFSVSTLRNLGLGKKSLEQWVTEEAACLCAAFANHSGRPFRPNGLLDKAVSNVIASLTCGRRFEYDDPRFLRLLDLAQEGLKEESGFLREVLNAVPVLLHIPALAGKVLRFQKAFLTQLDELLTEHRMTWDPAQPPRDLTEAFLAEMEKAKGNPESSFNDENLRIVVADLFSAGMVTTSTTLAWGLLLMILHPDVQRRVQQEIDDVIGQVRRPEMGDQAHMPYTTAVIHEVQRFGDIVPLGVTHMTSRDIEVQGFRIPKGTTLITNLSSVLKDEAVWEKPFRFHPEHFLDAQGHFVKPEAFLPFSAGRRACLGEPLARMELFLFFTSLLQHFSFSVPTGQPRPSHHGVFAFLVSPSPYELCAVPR

[7] = Clearance in iv dosed rat; assay type: ADME, organism-based; conditions: in vivo
[8] = biological target: Sodium-dependent noradrenaline transporter (Homo sapiens, UniProt P23975); experiment: Inhibition of NET
Chain of Sodium-dependent noradrenaline transporter (P23975 whole entry): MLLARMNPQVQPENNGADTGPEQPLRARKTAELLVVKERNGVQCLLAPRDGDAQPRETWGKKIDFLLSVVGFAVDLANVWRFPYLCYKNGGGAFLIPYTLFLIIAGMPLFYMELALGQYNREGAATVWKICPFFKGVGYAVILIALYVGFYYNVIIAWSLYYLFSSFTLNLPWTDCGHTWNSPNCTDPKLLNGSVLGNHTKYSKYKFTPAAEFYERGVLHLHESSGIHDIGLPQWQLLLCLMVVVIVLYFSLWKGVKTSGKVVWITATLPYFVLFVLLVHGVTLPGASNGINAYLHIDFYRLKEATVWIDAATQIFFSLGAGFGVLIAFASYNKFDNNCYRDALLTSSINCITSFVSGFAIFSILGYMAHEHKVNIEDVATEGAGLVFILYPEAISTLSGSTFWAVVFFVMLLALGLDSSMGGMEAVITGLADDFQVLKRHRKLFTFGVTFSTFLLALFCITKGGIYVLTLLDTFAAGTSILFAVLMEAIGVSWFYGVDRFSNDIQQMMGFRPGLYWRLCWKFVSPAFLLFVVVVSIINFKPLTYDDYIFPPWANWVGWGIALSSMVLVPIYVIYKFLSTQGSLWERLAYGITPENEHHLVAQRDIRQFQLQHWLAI

[9] = tested on: Hepatocyte; experiment: Metabolic stability in human hepatocytes assessed as per 10^6 cells; assay type: ADME, cell-based
[10] = tested on: Hepatocyte; experiment: Metabolic stability in rat hepatocytes assessed as per 10^6 cells; assay type: ADME, cell-based
[11] = biological target: T1, Nitric oxide synthase, inducible (Homo sapiens, UniProt P35228); experiment: Inhibition of iNOS in intact human DLD1 cells assessed as nitric oxide production; assay type: cell-based, DLD-1
T1 sequence (P35228 whole entry): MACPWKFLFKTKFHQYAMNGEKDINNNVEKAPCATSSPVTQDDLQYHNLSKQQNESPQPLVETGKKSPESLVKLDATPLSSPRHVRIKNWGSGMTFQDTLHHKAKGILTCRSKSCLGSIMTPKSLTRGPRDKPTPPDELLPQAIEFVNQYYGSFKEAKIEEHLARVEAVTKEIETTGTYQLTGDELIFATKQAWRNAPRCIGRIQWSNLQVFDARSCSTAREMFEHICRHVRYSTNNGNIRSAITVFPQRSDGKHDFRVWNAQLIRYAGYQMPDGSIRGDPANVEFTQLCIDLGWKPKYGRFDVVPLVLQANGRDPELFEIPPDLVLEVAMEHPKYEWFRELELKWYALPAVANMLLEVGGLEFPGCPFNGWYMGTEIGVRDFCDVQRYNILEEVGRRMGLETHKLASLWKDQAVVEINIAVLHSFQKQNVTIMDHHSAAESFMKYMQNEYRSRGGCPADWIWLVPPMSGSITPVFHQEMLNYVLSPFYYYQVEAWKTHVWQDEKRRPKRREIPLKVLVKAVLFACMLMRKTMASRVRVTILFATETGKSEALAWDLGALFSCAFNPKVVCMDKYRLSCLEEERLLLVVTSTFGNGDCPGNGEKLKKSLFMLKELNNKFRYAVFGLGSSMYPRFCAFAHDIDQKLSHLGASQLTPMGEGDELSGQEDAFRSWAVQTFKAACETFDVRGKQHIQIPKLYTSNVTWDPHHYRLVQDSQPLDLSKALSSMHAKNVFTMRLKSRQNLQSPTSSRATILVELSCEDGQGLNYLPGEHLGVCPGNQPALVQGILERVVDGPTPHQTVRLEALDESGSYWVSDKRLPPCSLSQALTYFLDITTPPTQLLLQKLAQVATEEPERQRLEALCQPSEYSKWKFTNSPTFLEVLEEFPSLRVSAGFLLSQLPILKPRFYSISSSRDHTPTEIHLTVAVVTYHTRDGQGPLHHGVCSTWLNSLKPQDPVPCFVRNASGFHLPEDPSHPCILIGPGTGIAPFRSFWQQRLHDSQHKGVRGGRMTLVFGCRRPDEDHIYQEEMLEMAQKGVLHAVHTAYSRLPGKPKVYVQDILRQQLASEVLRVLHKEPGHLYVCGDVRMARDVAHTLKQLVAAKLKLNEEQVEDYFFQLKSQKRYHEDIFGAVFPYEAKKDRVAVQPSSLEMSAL

[12] = biological target: T1, Nitric oxide synthase, inducible; experiment: Inhibition of human recombinant iNOS
[13] = biological target: Voltage-gated inwardly rectifying potassium channel KCNH2 (Homo sapiens, UniProt Q12809); experiment: Inhibition of human ERG
Chain of Voltage-gated inwardly rectifying potassium channel KCNH2 (Q12809 whole entry): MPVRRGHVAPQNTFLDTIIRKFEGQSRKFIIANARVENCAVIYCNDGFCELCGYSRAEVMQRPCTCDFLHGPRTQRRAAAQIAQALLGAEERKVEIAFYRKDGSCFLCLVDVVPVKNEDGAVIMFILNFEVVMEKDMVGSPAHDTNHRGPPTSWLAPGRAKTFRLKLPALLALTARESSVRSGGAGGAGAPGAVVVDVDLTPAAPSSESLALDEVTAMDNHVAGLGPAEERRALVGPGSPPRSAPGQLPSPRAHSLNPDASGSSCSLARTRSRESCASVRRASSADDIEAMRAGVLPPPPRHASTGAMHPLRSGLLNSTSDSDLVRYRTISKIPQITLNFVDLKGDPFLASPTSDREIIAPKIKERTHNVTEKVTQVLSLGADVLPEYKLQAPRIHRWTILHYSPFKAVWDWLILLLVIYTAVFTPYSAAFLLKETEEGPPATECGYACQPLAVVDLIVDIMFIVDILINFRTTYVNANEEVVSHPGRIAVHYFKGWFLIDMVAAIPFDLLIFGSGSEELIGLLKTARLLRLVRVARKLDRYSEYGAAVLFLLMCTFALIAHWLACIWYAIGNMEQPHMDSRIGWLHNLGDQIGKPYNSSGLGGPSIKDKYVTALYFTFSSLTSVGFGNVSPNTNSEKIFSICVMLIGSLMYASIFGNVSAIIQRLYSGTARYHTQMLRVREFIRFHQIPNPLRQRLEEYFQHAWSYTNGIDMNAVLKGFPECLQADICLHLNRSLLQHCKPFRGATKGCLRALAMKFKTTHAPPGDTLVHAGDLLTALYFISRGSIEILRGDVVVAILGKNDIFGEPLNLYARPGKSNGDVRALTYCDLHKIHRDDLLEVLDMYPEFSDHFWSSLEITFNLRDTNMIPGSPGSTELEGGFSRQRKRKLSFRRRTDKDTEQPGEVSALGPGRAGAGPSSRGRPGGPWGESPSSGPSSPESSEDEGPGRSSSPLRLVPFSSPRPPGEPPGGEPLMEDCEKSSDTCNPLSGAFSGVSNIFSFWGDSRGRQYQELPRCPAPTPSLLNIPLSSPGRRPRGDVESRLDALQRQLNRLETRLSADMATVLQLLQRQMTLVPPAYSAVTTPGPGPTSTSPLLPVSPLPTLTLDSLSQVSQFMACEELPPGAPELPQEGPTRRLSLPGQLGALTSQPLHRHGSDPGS

[14] = species on record: Homo sapiens; experiment: Selectivity ratio of IC50 for human recombinant iNOS to IC50 for human recombinant eNOS
[15] = Oral bioavailability in rat; assay type: ADME, organism-based; conditions: in vivo
[16] = tested on: Rattus norvegicus; experiment: Analgesic activity in Dark Agouti rat collagen-induced arthritis model assessed as reduction in inflammation at 75 umol/kg bid by histological analysis; assay type: functional, organism-based
[17] = tested on: Rattus norvegicus; experiment: Analgesic activity in Dark Agouti rat collagen-induced arthritis model assessed as reduction in erosion scores at 75 umol/kg bid by histological analysis; assay type: functional, organism-based
[18] = tested on: Rattus norvegicus; experiment: Analgesic activity in Dark Agouti rat collagen-induced arthritis model at 75 umol/kg bid; assay type: functional, organism-based

Structure (SMILES): CNCC[C@@H](Oc1cc(Cl)ccc1C#N)c1ccccc1.Cl
- logD [1]: 1.7
- half-life [2]: 78 min
- Stability [3]: 4 µL/min
- IC50 ([4]; read-out: IC50): 4.5 µM
- Vd [5]: 6.6 L/kg
- IC50 ([6]; read-out: IC50): 1000 nM
- clearance [7]: 94 mL/min/kg
- IC50 ([8]; read-out: IC50): 0.5 µM
- Stability [9]: 1.4 µL/min
- Stability [10]: 54 µL/min
- IC50 ([11]; read-out: IC50): 700 nM
- IC50 [12]: 9 nM

Structure (SMILES): CNCC[C@@H](Oc1cc(C(F)(F)F)ccc1C#N)c1ccccc1.Cl
- logD [1]: 1.3
- IC50 ([4]; read-out: IC50): 10 µM
- IC50 [13]: Not Active
- IC50 ([6]; read-out: IC50): 1600 nM
- IC50 ([8]; read-out: IC50): 28 µM
- Ratio IC50 [14]: 1400
- IC50 ([11]; read-out: IC50): 2700 nM
- IC50 [12]: 71 nM

Structure (SMILES): N#Cc1ccc(Cl)cc1O[C@H](CCN)c1ccccc1.O=C(O)C(=O)O
- logD [1]: 0.8
- IC50 ([4]; read-out: IC50): 2.1 µM
- IC50 [13]: Not Active
- IC50 ([6]; read-out: IC50): 400 nM
- IC50 ([8]; read-out: IC50): 15 µM
- Ratio IC50 [14]: > 10000
- IC50 ([11]; read-out: IC50): 900 nM
- IC50 [12]: 4 nM

Structure (SMILES): CNCC[C@@H](Oc1cc(Cl)ccc1Cl)c1ccccc1.O=C(O)/C=C/C(=O)O
- IC50 [13]: Not Active
- IC50 [6]: Not Active
- Ratio IC50 [14]: > 4500
- IC50 ([11]; read-out: IC50): 8700 nM
- IC50 [12]: 22 nM

Structure (SMILES): N#Cc1ccc(C(F)(F)F)nc1O[C@H](CCN)c1ccno1.O=C(O)C(=O)O
- logD [1]: -0.5
- bioavailability [15]: 49%
- IC50 ([4]; read-out: IC50): 70 µM
- Vd [5]: 3.4 L/kg
- IC50 ([13]; read-out: IC50): > 10 µM
- IC50 ([6]; read-out: IC50): > 14000 nM
- IC50 ([8]; read-out: IC50): > 100 µM
- IC50 ([11]; read-out: IC50): 720 nM
- IC50 [12]: 5.4 nM

Structure (SMILES): NCC(Oc1cc(Cl)ccc1Cl)c1ccccc1 (stereo not drawn)
- IC50 [4]: Not Active
- IC50 [13]: Not Active
- IC50 [6]: Not Active
- IC50 [8]: Not Active
- Ratio IC50 [14]: > 53
- IC50 ([11]; dld-1): Not Active
- IC50 [12]: 1900 nM

Structure (SMILES): Cc1ccnc(NCc2ccccc2)c1
- Ratio IC50 [14]: 12
- IC50 [12]: 790 nM

Structure (SMILES): CCC(CCNC)Oc1cc(Cl)ccc1C#N.Cl (racemic)
- logD [1]: 0.4
- IC50 ([4]; read-out: IC50): 44 µM
- IC50 [13]: Not Active
- IC50 ([6]; read-out: IC50): 400 nM
- IC50 ([8]; read-out: IC50): 7.1 µM
- Ratio IC50 [14]: 170
- IC50 ([11]; read-out: IC50): 3600 nM
- IC50 [12]: 51 nM

Structure (SMILES): N#Cc1cc(Cl)ccc1O[C@H](CCN)c1ccccc1.O=C(O)/C=C/C(=O)O
- logD [1]: 0.9
- IC50 [4]: Not Active
- IC50 [13]: Not Active
- IC50 [6]: Not Active
- IC50 [8]: Not Active
- Ratio IC50 [14]: 100
- IC50 ([11]; dld-1): Not Active
- IC50 [12]: 960 nM

Structure (SMILES): CNCC[C@@H](Oc1cc(OC)ccc1C#N)c1ccccc1.O=C(O)C(=O)O
- logD [1]: 0.9
- IC50 ([4]; read-out: IC50): 5.7 µM
- IC50 [13]: Not Active
- IC50 ([6]; read-out: IC50): 300 nM
- IC50 ([8]; read-out: IC50): 12 µM
- IC50 ([11]; read-out: IC50): 9500 nM
- IC50 [12]: 110 nM

Structure (SMILES): Cc1ccc(C#N)c(S[C@H](CCN)c2ccccc2)n1.O=C(O)/C=C/C(=O)O
- logD [1]: 0.7
- IC50 ([4]; read-out: IC50): 2.6 µM
- IC50 [13]: Not Active
- IC50 ([6]; read-out: IC50): 5000 nM
- IC50 ([8]; read-out: IC50): 7.4 µM
- Ratio IC50 [14]: > 10000
- IC50 ([11]; read-out: IC50): 600 nM
- IC50 [12]: 4 nM

Structure (SMILES): N#Cc1ccc(Cl)cc1S[C@H](CCN)c1ccccc1.O=C(O)/C=C/C(=O)O
- IC50 ([4]; read-out: IC50): 6.7 µM
- IC50 [13]: Not Active
- IC50 ([6]; read-out: IC50): 4100 nM
- IC50 ([8]; read-out: IC50): 17 µM
- IC50 [12]: 4 nM

Structure (SMILES): N#Cc1ccc(C(=O)N2CCC3(CC2)N=C(N)c2c(F)ccc(F)c2N3)cn1
- logD [1]: 0.79
- half-life [2]: 66 min
- bioavailability [15]: 75%
- Stability [3]: Unstable
- IC50 [4]: Not Active
- Vd [5]: 4.5 L/kg
- IC50 ([13]; read-out: IC50): 0.1 µM
- IC50 [6]: Not Active
- clearance [7]: 57 mL/min/kg
- IC50 [8]: Not Active
- Stability [9]: < 3 µL/min
- Stability [10]: 5 µL/min

Structure (SMILES): N#Cc1cc(F)c(Cl)cc1O[C@H](CCN)c1ccccc1.O=C(O)C(=O)O
- Activity [16]: Active
- logD [1]: 0.8
- half-life [2]: 258 min
- bioavailability [15]: 57%
- Stability [3]: 6 µL/min
- Activity [17]: Active
- IC50 ([4]; read-out: IC50): 4.4 µM
- Vd [5]: 13 L/kg
- Activity [18]: Active
- IC50 ([13]; read-out: IC50): > 10 µM
- IC50 ([6]; read-out: IC50): 340 nM
- clearance [7]: 49 mL/min/kg
- IC50 ([8]; read-out: IC50): 16 µM
- Stability [9]: < 1 µL/min
- Ratio IC50 [14]: > 10000
- Stability [10]: 8.9 µL/min
- IC50 ([11]; read-out: IC50): 700 nM
- IC50 [12]: 6 nM
